US20070179161A1, “Pyrazolopyrimidine compounds and their use in medicine” (VERNALIS (CAMBRIDGE) LIMITED., priority 2003, published 2007)

Experiments:
Assay type in all cases: biochemical
[1] = molecular target: CDK-2 enzyme, complexed with cyclin A (Homo sapiens, UniProt P24941); assay: CDK2 enzyme inhibition assay (33P phosphorylation of peptide […], filter plate); details: CDK-2/cyclin A, 0.1 mM ATP, 40 min at 30° C.
Outline: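 Cyclin A–complexed CDK2 (0.4 U/ml) incubated with inhibitor, 0.03 mM peptide, 0.1 mM ATP plus 33P-γ-ATP in HEPES pH 7.5, 7.5 mM Mg acetate, 0.1 mg/ml BSA, 40 min at 30 °C. Stopped with phosphoric acid; phosphorylated peptide captured on filter plates and counted by scintillation.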

[2] = molecular target: T1, GST-Chk1 enzyme (Homo sapiens, UniProt O14757); assay: Chk1 kinase inhibition assay (33P phosphorylation of Chktide, filter plate); details: 0.01 mM ATP, 11 nM GST-Chk1, 40 minutes at 30° C.; read-out: Chk1 IC50
T1 sequence (O14757 1-476): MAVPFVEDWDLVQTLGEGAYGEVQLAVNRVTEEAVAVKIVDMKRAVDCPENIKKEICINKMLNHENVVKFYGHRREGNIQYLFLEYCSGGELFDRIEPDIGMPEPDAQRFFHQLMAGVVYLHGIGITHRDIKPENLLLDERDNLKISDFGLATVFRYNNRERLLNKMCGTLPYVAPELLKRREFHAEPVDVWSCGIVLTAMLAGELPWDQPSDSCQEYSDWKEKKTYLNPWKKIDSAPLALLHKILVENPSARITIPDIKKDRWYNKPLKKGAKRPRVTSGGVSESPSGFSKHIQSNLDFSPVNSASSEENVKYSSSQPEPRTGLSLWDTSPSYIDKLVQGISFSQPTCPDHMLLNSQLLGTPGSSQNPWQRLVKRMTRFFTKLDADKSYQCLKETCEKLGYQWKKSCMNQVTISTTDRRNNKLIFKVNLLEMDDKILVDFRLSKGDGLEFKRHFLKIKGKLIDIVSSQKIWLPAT
Outline: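 Inhibitor and enzyme reacted 40 min at 30 °C, then stopped with 50 mM phosphoric acid. Phosphorylated peptide captured on filter plates and quantified by scintillation counting.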

[3] = molecular target: T2, PDK1 enzyme (Homo sapiens, UniProt O15530); assay: PDK1 kinase inhibition assay (33P phosphorylation of synthetic peptide, filter plate); details: 0.01 mM ATP, 60 min at 30° C.; read-out: PDK1 IC50
T2 sequence (O15530 1-556): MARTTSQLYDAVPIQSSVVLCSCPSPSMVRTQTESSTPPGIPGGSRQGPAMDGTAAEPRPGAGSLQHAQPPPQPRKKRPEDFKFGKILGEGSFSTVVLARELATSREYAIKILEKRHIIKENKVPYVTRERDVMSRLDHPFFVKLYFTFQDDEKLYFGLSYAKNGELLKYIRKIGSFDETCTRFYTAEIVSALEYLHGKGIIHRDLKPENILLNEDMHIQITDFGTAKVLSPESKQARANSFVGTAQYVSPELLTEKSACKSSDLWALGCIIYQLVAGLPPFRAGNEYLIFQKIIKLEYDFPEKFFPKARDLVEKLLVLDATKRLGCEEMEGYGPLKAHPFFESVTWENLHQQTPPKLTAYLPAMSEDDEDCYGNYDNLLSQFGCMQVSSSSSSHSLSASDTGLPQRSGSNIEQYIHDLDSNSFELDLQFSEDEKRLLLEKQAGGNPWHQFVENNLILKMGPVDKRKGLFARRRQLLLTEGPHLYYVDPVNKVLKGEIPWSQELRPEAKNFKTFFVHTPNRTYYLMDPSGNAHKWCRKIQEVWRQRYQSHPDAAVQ
Outline: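 PDK1 and inhibitor incubated 60 min at 30° C with 0.01 mM ATP plus 33P-γ-ATP, 0.075 mM peptide, 7.5 mM Mg acetate, 0.1 mg/ml BSA in 0.05 M Tris.HCl pH 7.5. Stopped with phosphoric acid; phosphorylated peptide captured on filter plate and counted by scintillation.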

Compound	IC50 [1]	IC50 [2]	IC50 [3]
CS(=O)(=O)c1ccc(Nc2cc(OC3CCCCC3)nc3ccnn23)cc1 [Example 21]	1.32 µM	> 200 µM	> 200 µM
CCN(CC)c1cc(Nc2ccc(S(=O)(=O)N(C)CCO)cc2)n2ncc(C(C)C)c2n1 [Example 51]	0.259 µM	> 200 µM	> 200 µM
CC(C)c1cnn2c(Nc3ccc(S(=O)(=O)N(C)C)cc3)cc(N3CCC(CN(C)C)CC3)nc12 [Example 105]	5.98 µM	> 200 µM	> 200 µM
CC(C)c1cnn2c(Nc3ccc(S(=O)(=O)N4CCCC4)cc3)cc(N[C@H]3CC[C@H](N)CC3)nc12 [Example 62]	0.024 µM	3.24 µM	1.2 µM
CN(C)S(=O)(=O)c1ccc(Nc2cc(N[C@H]3CC[C@H](N)CC3)nc3c(C4CC4)cnn23)cc1 [Example 128]	0.022 µM	1.03 µM	0.178 µM
CC(C)c1cnn2c(Nc3ccc(S(=O)(=O)N(C)C)cc3)cc(N3CCCC(C(=O)N(C)C)C3)nc12 (stereo not drawn) [Example 92]	10.5 µM	> 200 µM	> 200 µM
CC(C)COc1cc(Nc2ccc(S(=O)(=O)N(C)C)cc2)n2ncc(C(C)C)c2n1 [Example 40]	1.16 µM	> 200 µM	> 200 µM
N[C@H]1CC[C@H](Nc2cc(Nc3ccc(Sc4cccs4)cc3)n3ncc(Cl)c3n2)CC1 [Example 193]	0.047 µM	1.47 µM	2.88 µM
CN(C)S(=O)(=O)c1ccc(Nc2cc(N[C@H]3CC[C@H](N)CC3)nc3c(-c4ccsc4)cnn23)cc1 [Example 154]	1.42 µM	0.63 µM	> 200 µM
CC(C)c1cnn2c(Nc3ccc(S(C)(=O)=O)cc3)cc(OCCN(C)C)nc12 [Example 53]	8.41 µM	> 200 µM	> 200 µM
CN(C)S(=O)(=O)c1ccc(Nc2cc(N[C@@H]3CCCC[C@@H]3N)nc3c(Br)cnn23)cc1 [Example 138]	0.565 µM	0.97 µM	> 50 µM
CC(C)c1cnn2c(Nc3ccc(S(=O)(=O)N(C)C)cc3)cc(N3CCC[C@H]3CN)nc12 [Example 97]	7.81 µM	4.75 µM	> 200 µM
CC(C)c1cnn2c(Nc3ccc(S(=O)(=O)N(C)C)cc3)cc(NC3CCC(N)C3)nc12 (stereo not drawn) [Example 150]	0.478 µM	2 µM	13 µM
CC(C)c1cnn2c(Nc3ccc(S(=O)(=O)N(C)C)cc3)cc(NCC3CCNCC3)nc12 [Example 80]	0.682 µM	> 200 µM	2.56 µM
CC(C)c1cnn2c(Nc3ccc(S(=O)(=O)N(C)C)cc3)cc(NCCN)nc12 [Example 98]	7.5 µM	18.7 µM	> 200 µM
CN(C)S(=O)(=O)c1cccc(Nc2cc(N[C@H]3CC[C@H](N)CC3)nc3c(Br)cnn23)c1 [Example 94]	0.07 µM	27 µM	> 200 µM
CCc1cnn2c(Nc3ccc(S(C)(=O)=O)cc3)ccnc12 [Example 47]	0.727 µM	> 200 µM	> 200 µM
CC(C)c1cnn2c(Nc3ccc(S(=O)(=O)N(C)C)cc3)cc(CN3CCC(N)CC3)nc12 [Example 157]	0.037 µM	8 µM	72 µM
CC(C)c1cnn2c(Nc3ccc(S(=O)(=O)N(C)C)cc3)cc(OC3CCCC3)nc12 [Example 54]	1.31 µM	> 200 µM	> 200 µM
CC(C)c1cnn2c(Nc3ccc(S(=O)(=O)N(C)C)cc3)cc(N3CCCCC3)nc12 [Example 50]	1.01 µM	> 200 µM	> 200 µM
CC(C)c1cnn2c(Nc3ccc(S(=O)(=O)N(C)C)cc3)cc(N[C@H]3CC[C@H](NS(C)(=O)=O)CC3)nc12 [Example 126]	0.073 µM	> 200 µM	34.4 µM
